Reference: US8450313B2, “2,3-diaryl- or heteroaryl-substituted 1,1,1-trifluoro-2-hydroxypropyl compounds” (Hoffmann-La Roche Inc., priority 2009, dated 2013)

These compounds were tested against T1, full length human recombinant glucocorticoid receptor (Homo sapiens, UniProt P04150) (assay: Glucocorticoid Receptor Binding Assay (Glucocorticoid Receptor Competitor Assay far red kit, fluorescence polarization)). Conditions: competition with fluorescent GR ligand Fluormone GS Far Red, 3 hours at 22° C., pH 7.4; Ki calculated from IC50 by Cheng-Prusoff.
T1 construct: It contains some partially purified full length human recombinant glucocorticoid receptor; purchased Panvera/Invitrogen PV4302
T1 sequence (P04150 1-777): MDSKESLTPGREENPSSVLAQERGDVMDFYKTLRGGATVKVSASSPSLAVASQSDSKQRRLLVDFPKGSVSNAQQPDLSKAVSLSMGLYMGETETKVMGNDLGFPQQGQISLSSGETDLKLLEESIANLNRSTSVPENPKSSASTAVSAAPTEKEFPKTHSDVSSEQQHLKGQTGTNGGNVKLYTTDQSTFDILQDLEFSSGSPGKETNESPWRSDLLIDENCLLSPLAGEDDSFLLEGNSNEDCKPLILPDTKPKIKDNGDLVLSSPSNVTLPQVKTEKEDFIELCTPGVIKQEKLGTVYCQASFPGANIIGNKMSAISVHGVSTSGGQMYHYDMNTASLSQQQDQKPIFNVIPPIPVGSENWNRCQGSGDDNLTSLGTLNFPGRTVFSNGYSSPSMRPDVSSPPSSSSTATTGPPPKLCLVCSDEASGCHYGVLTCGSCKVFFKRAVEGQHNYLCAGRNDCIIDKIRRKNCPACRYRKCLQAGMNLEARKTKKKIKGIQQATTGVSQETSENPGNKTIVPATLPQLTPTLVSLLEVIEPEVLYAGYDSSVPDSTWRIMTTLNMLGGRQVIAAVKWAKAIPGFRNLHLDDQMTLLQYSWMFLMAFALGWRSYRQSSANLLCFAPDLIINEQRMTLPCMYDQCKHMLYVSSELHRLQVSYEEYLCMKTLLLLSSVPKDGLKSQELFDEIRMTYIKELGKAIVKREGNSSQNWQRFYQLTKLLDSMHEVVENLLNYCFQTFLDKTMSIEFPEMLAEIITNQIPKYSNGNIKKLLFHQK
Summary of the method: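 Compounds in serial dilution (from intermediate 4.2% DMSO stock) displace Fluormone GS Far Red from full-length human recombinant GR with stabilizing peptide, pH 7.4, incubated 3 hours at 22° C dark. Polarized fluorescence (610–660 nm) gives IC50 via sigmoidal fit, converted to Ki by Cheng-Prusoff.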

Compound | Ki [nM]
C[C@@H](c1ccc(C(=O)O)cc1Cl)[C@](O)(c1ccc2c(c1)N(C)C(=O)CO2)C(F)(F)F (relative stereo) [Example 43, 3-Chloro-4-[3,3,3-trifluoro-2-hydroxy-1-methyl-2-(4-methyl-3-oxo-3,4-dihydro-2H-benzo[1,4]oxazin-6-yl)-propyl]-benzoic acid] | 261
C[C@@H](c1ccc(-c2ccc(C(=O)O)c(F)c2)cc1Cl)[C@](O)(c1cc(F)c2c(c1)N(C)C(=O)CO2)C(F)(F)F (relative stereo) [Example 46, 3′-Chloro-3-fluoro-4′-[3,3,3-trifluoro-2-(8-fluoro-4-methyl-3-oxo-3,4-dihydro-2H-benzo[1,4]oxazin-6-yl)-2-hydroxy-1-methyl-propyl]-biphenyl-4-carboxylic acid] | 10.9
COC(=O)c1ccc(-c2ccc([C@@H](C)[C@@](O)(c3cccc4c3OCC(=O)N4C)C(F)(F)F)c(Cl)c2)cc1F (relative stereo) [Example 53, 3′-Chloro-3-fluoro-4′-[3,3,3-trifluoro-2-hydroxy-1-methyl-2-(4-methyl-3-oxo-3,4-dihydro-2H-benzo[1,4]oxazin-8-yl)-propyl]-biphenyl-4-carboxylic acid methyl ester] | 66.1
CCN1C(=O)COc2ccc([C@](O)([C@H](C)c3ccc(-c4ccc(C(=O)O)c(F)c4)cc3Cl)C(F)(F)F)cc21 (relative stereo) [Example 65, 3′-Chloro-4′-[2-(4-ethyl-3-oxo-3,4-dihydro-2H-benzo[1,4]oxazin-6-yl)-3,3,3-trifluoro-2-hydroxy-1-methyl-propyl]-3-fluoro-biphenyl-4-carboxylic acid] | 128
CCN1C(=O)COc2ccc([C@](O)([C@H](C)c3ccc(-c4ccc(Cl)c(C(=O)O)c4)cc3Cl)C(F)(F)F)cc21 (relative stereo) [Example 66, 4,3′-Dichloro-4′-[2-(4-ethyl-3-oxo-3,4-dihydro-2H-benzo[1,4]oxazin-6-yl)-3,3,3-trifluoro-2-hydroxy-1-methyl-propyl]-biphenyl-3-carboxylic acid] | 191
CCN1C(=O)COc2ccc([C@](O)([C@H](C)c3ccc(-c4ccc(F)c(C(=O)O)c4)cc3Cl)C(F)(F)F)cc21 (relative stereo) [Example 67, 3′-Chloro-4′-[2-(4-ethyl-3-oxo-3,4-dihydro-2H-benzo[1,4]oxazin-6-yl)-3,3,3-trifluoro-2-hydroxy-1-methyl-propyl]-4-fluoro-biphenyl-3-carboxylic acid] | 40.2
CCN1C(=O)COc2ccc([C@](O)([C@H](C)c3ccc(Oc4cc(C(F)(F)F)c(C(=O)O)cn4)cc3Cl)C(F)(F)F)cc21 (relative stereo) [Example 68, 6-{3-Chloro-4-[2-(4-ethyl-3-oxo-3,4-dihydro-2H-benzo[1,4]oxazin-6-yl)-3,3,3-trifluoro-2-hydroxy-1-methyl-propyl]-phenoxy}-4-trifluoromethyl-nicotinic acid] | 59.8
CCN1C(=O)COc2ccc([C@@](O)([C@@H](C)c3ccc(Oc4ccc(C(=O)O)c(Cl)n4)cc3Cl)C(F)(F)F)cc21 (relative stereo) [Example 69, 2-Chloro-6-{3-chloro-4-[2-(4-ethyl-3-oxo-3,4-dihydro-2H-benzo[1,4]oxazin-6-yl)-3,3,3-trifluoro-2-hydroxy-1-methyl-propyl]-phenoxy}-nicotinic acid] | 35.9
COC(=O)c1ccc(-c2ccc([C@@H](C)[C@@](O)(c3ccc4c(c3)NC(=O)CO4)C(F)(F)F)c(Cl)c2)cc1F (relative stereo) [Example 71, 3′-Chloro-3-fluoro-4′-[3,3,3-trifluoro-2-hydroxy-1-methyl-2-(3-oxo-3,4-dihydro-2H-benzo[1,4]oxazin-6-yl)-propyl]-biphenyl-4-carboxylic acid methyl ester] | 28.1
C[C@H](c1ccc(-c2ccc(C(=O)O)c(F)c2)cc1Cl)[C@@](O)(c1ccc2c(c1)NC(=O)CO2)C(F)(F)F (relative stereo) [Example 72, 3′-Chloro-3-fluoro-4′-[3,3,3-trifluoro-2-hydroxy-1-methyl-2-(3-oxo-3,4-dihydro-2H-benzo[1,4]oxazin-6-yl)-propyl]-biphenyl-4-carboxylic acid] | 222
C[C@H](c1ccc(-c2ccc(C(=O)O)nc2)cc1Cl)[C@@](O)(c1ccc2c(c1)n(C)c(=O)n2C)C(F)(F)F (relative stereo) [Example 84, 5-{3-Chloro-4-[2-(1,3-dimethyl-2-oxo-2,3-dihydro-1H-benzoimidazol-5-yl)-3,3,3-trifluoro-2-hydroxy-1-methyl-propyl]-phenyl}-pyridine-2-carboxylic acid] | 11.9

Now those with a lower Ki, led by results:

Ki [nM] | Compound
5 | COc1cc(Oc2ccc([C@@H](C)[C@@](O)(c3ccc4c(c3)n(C)c(=O)n4C)C(F)(F)F)c(Cl)c2)ccc1C(=O)O (relative stereo) [Example 97, 4-{3-Chloro-4-[2-(1,3-dimethyl-2-oxo-2,3-dihydro-1H-benzoimidazol-5-yl)-3,3,3-trifluoro-2-hydroxy-1-methyl-propyl]-phenoxy}-2-methoxy-benzoic acid]
3.2 | C[C@@H](c1ccc(Oc2ccc(CC(=O)O)cc2)cc1Cl)[C@](O)(c1ccc2c(c1)N(C)C(=O)CO2)C(F)(F)F (relative stereo) [Example 44, (4-{3-Chloro-4-[3,3,3-trifluoro-2-hydroxy-1-methyl-2-(4-methyl-3-oxo-3,4-dihydro-2H-benzo[1,4]oxazin-6-yl)-propyl]-phenoxy}-phenyl)-acetic acid]
2.4 | C[C@H](c1ccc(Oc2ccccc2C(=O)O)cc1Cl)[C@@](O)(c1ccc2c(c1)n(C)c(=O)n2C)C(F)(F)F (relative stereo) [Example 96, 2-{3-Chloro-4-[2-(1,3-dimethyl-2-oxo-2,3-dihydro-1H-benzoimidazol-5-yl)-3,3,3-trifluoro-2-hydroxy-1-methyl-propyl]-phenoxy}-benzoic acid]
2.1 | COC(=O)c1ccc(-c2ccc([C@H](C)[C@](O)(c3cc(F)c4c(c3)N(C)C(=O)CO4)C(F)(F)F)c(Cl)c2)cc1F (relative stereo) [Example 45, 3′-Chloro-3-fluoro-4′-[3,3,3-trifluoro-2-(8-fluoro-4-methyl-3-oxo-3,4-dihydro-2H-benzo[1,4]oxazin-6-yl)-2-hydroxy-1-methyl-propyl]-biphenyl-4-carboxylic acid methyl ester]
2 | CCOC(=O)COc1cc(-c2ccc([C@H](C)[C@](O)(c3cc(F)c4c(c3)N(C)C(=O)CO4)C(F)(F)F)c(Cl)c2)ccc1F (relative stereo) [Example 47, {3′-Chloro-4-fluoro-4′-[3,3,3-trifluoro-2-(8-fluoro-4-methyl-3-oxo-3,4-dihydro-2H-benzo[1,4]oxazin-6-yl)-2-hydroxy-1-methyl-propyl]-biphenyl-3-yloxy}-acetic acid ethyl ester]
1.6 | C[C@H](c1ccc(Oc2ccc(C(=O)O)cc2)cc1Cl)[C@@](O)(c1ccc2c(c1)n(C)c(=O)n2C)C(F)(F)F (relative stereo) [Example 98, 4-{3-Chloro-4-[2-(1,3-dimethyl-2-oxo-2,3-dihydro-1H-benzoimidazol-5-yl)-3,3,3-trifluoro-2-hydroxy-1-methyl-propyl]-phenoxy}-benzoic acid]
1.5 | C[C@@H](c1ccc(-c2cccc(CC(=O)O)c2)cc1Cl)[C@](O)(c1ccc2c(c1)N(C)C(=O)CO2)C(F)(F)F (relative stereo) [Example 41, {3′-Chloro-4′-[3,3,3-trifluoro-2-hydroxy-1-methyl-2-(4-methyl-3-oxo-3,4-dihydro-2H-benzo[1,4]oxazin-6-yl)-propyl]-biphenyl-3-yl}-acetic acid]
1.2 | C[C@H](c1ccc(Oc2cccc(C(=O)O)c2)cc1Cl)[C@@](O)(c1ccc2c(c1)n(C)c(=O)n2C)C(F)(F)F (relative stereo) [Example 99, 3-{3-Chloro-4-[2-(1,3-dimethyl-2-oxo-2,3-dihydro-1H-benzoimidazol-5-yl)-3,3,3-trifluoro-2-hydroxy-1-methyl-propyl]-phenoxy}-benzoic acid]
0.7 | CCOC(=O)c1cc(-c2ccc([C@H](C)[C@](O)(c3ccc4c(c3)N(C)C(=O)CO4)C(F)(F)F)c(Cl)c2)ccc1Cl (relative stereo) [Example 39, 4,3′-Dichloro-4′-[3,3,3-trifluoro-2-hydroxy-1-methyl-2-(4-methyl-3-oxo-3,4-dihydro-2H-benzo[1,4]oxazin-6-yl)-propyl]-biphenyl-3-carboxylic acid ethyl ester]
0.5 | C[C@@H](c1ccc(Oc2cc(C(F)(F)F)c(C(=O)O)cn2)cc1Cl)[C@](O)(c1ccc2c(c1)n(C)c(=O)n2C)C(F)(F)F (relative stereo) [Example 102, 6-{3-Chloro-4-[2-(1,3-dimethyl-2-oxo-2,3-dihydro-1H-benzoimidazol-5-yl)-3,3,3-trifluoro-2-hydroxy-1-methyl-propyl]-phenoxy}-4-trifluoromethyl-nicotinic acid]
